Laboratory results published in US20130178437A1, “CONJUGATES COMPRISING HYDROXYALKYL STARCH AND A CYTOTOXIC AGENT AND PROCESS FOR THEIR PREPARATION” (priority 2010, published 2013).
Marks after values point to notes of the source that are not given here.

Key:
[1] = tested on: human breast cancer carcinoma MT-3; test: Tumor growth inhibition, s.c. MT-3 xenografts in nude mice (doxorubicin conjugates); assay type: in vivo, NMRI:nu/nu mice; conditions: 8 mg/kg/inj. i.v.
From the text: (§1) For all in vivo studies in which doxorubicin conjugates wer administred, adult female NMRI:nu/nu mice (TACONIC Europe, Lille Skensved, Denmark) were used throughout the study.
(§2) The human breast cancer carcinoma MT-3, human ovarian cancer carcinoma ovcar-3 and human mamma carcinoma MT3-ADR were used as s.c. xenotransplantation model in immunodeficient female […] mice (see table 17).
(§3) The cells were obtained from ATCC and are cryo-preserved within the EPO tumor bank. They were thawed, expanded in vitro and transplanted as cell suspension subcutaneously (s.c.) in female NMRI:nu/nu mice. The tumor lines MT-3, ovcar-3 and MT3-ADR are used for testing new anticancer drugs or novel therapeutic strategies. It was therefore selected for this study. MT-3, ovcar-3 and MT3-ADR xenografts are growing relatively fast and uniform.
(§4) For experimental use 5*10^6 to 10^7 tumor cells/mouse from the in vitro passage were transplanted s.c. into the flank of each of 10 mice/group at day 0.
(§5) At palpable tumor size (30-100 mm^3) treatment started. The application volume was 0.2 ml/20 g mouse body weight. The test compounds, the vehicle controls and the reference compounds were all given intravenously (i.v.).
(§6) Tumor growth inhibition was used as therapeutic parameter. Additionally, body weight change was determined as signs for toxicity (particularly, potential hematological or gastrointestinal side effects).
(§7) Tumor diameters were measured twice weekly with a caliper. Tumor volumes were calculated according to V=(length×(width)^2)/2. For calculation of the relative tumor volume (RTV) the tumor volumes at each measurement day were related to the day of first treatment. At each measurement day the median and mean tumor volumes per group and also the treated to control (T/C) values in percent were calculated (Table 10 to 15).
Descriptive statistics were performed on the data of body weight and tumor volume. […] Statistical evaluation was performed with the U-test of Mann and Whitney with a significance level of p≦0.05, using the Windows program […] 6.
The tested Doxorubicin conjugates CDx1 to CDx15 were obtained as described herein above and were kept in a freeze-dried form at −20° C. until the use. Before administration, the conjugates were dissolved in saline solution by vortexing in combination with centrifugation until a clear solution of the necessary concentration of the drug was obtained. The obtained solutions were prepared and injected under sterile conditions.
The reference compound was Doxorubicin (which is, for example, available as Doxorubicin NC® from Neocorp). Doxorubicin was stored in aliquots at 4° C. in the dark and diluted in saline before administration.
(§8) Tables 10 to 15 summarize the results for the tested, Doxorubicin conjugates and the reference compound Doxorubicin.

[2] = tested on: human ovarian cancer carcinoma ovcar-3; test: Tumor growth inhibition, s.c. ovcar-3 xenografts in nude mice (doxorubicin conjugates); assay type: in vivo, NMRI:nu/nu mice; conditions: Table 13; 8 mg/kg/inj. i.v., treatment d 5
From the text: as §1, §2, §3, §4, §5, §6, §7
(§9) Descriptive statistics were performed on the data of body weight and tumor volume. […] Statistical evaluation was performed with the U-test of Mann and Whitney with a significance level of p≦0.05, using the Windows program […] 6. […]

[3] = tested on: human mamma carcinoma MT3-ADR; test: Tumor growth inhibition, s.c. MT3-ADR xenografts in nude mice (doxorubicin conjugates); assay type: in vivo, NMRI:nu/nu mice; conditions: Table 14; 8 mg/kg/inj. i.v., treatment d 10
From the text: as §1, §2, §3, §4, §5, §6, §7, §9

[4] = Body weight change and toxic deaths in xenograft-bearing mice (doxorubicin studies); assay type: in vivo, NMRI:nu/nu mice; conditions: for Toxic deaths: 7 mice
Protocol: as §1, §5, §6
Individual body weights of mice were determined twice weekly and mean body weight per group was related to the initial value in percent (body weight change, BWC).
On the day of necropsy the mice were sacrificed by cervical dislocation and inspected for gross organ changes.
as §8
The loss of body weight is known to be an indicator of gastro-intestinal and hepatotoxicity of the tested compound.

[5] = tested on: human breast cancer carcinoma MT-3; test: Tumor growth inhibition, s.c. MT-3 xenografts in nude mice (epirubicin and idarubicin conjugates); assay type: in vivo, NMRI-nu/nu nude mice; conditions: MT-3 subtype obtained from a different laboratory; unmodified drug
Protocol: All experiments were performed using 5-6 weeks old female NMRI^−nu/nu nude mice (approximate weight: 30 g after acclimatization). Mice were maintained in individual ventilated cages (IVC, max. 3 mice/cage) at constant temperature and humidity. Animal weights were taken every other day (Monday, Wednesday and Friday). Animal behavior was monitored daily. At study end, animals were sacrificed and in case the tumor volume was measured a necropsy was performed.
Monolayers of MT-3 cells were grown in DMEM 4500 with phenol red supplement with 10% FCS, 1% L-Glutamine, 100 units penicillin/ml, and 100 μg of streptomycin/ml. MT-3 cells were cultured in a humidified atmosphere of 90% air and 10% carbon dioxide at 37° C. Media were routinely changed every 3 days.
For experimental use 5×10^6 to 10^7 tumor cells/mouse from the in vitro passage were transplanted s.c. into the flank of each of 10 mice/group at day 0.
At palpable tumor size (30-100 mm^3) treatment was started. The application volume was 0.2 ml/20 g mouse body weight. The test compounds, the vehicle controls and the reference compounds were all given intravenously (i.v.).
Tumor growth inhibition was used as therapeutic parameter. Additionally, body weight change was determined as signs for toxicity (particularly, potential hematological or gastrointestinal side effects). […]

[6] = Table 13, ovcar-3 model, 8 mg/kg/inj. i.v., treatment d 5
[7] = Table 14, MT3-ADR model, 8 mg/kg/inj. i.v., treatment d 10

COc1cccc2c1C(=O)c1c(O)c3c(c(O)c1C2=O)C[C@@](O)(C(=O)CO)C[C@@H]3O[C@H]1C[C@H](N)[C@H](O)[C@H](C)O1 [Doxorubicin]
T/C (%) (TV) at the end ([1]; Table 10, treatment d 7, 14): 1.16 +/− 0.35% | T/C (%) Optimum ([1]; Table 10, treatment d 7, 14): 32.2% | T/C (%) Optimum (at day) ([1]; Table 10, treatment d 7, 14): (18) day | Tumor growth RTV d 28 ([1]; Table 10, treatment d 7, 14): 10.8 +/− 3.7 | T/C (%) Optimum ([1]; Table 11, treatment d 10): 30% | T/C (%) Optimum (at day) ([1]; Table 11, treatment d 10): (21) day | Tumor growth RTV d 28 ([1]; Table 11, treatment d 10): 4.3 +/− 3.4 | RTV T/C (%) Optimum ([1]; Table 12, treatment d 7): 39.2% | RTV T/C (%) Optimum (at day) ([1]; Table 12, treatment d 7): (29) day | Tumor growth RTV d 33 ([1]; Table 12, treatment d 7): 5.59 +/− 0.78* | T/C (%) Optimum ([1]; Table 15, treatment d 7): 37.8% | T/C (%) Optimum (at day) ([1]; Table 15, treatment d 7): (13) day | Tumor growth RTV d 20 ([1]; Table 15, treatment d 7): 8.1 +/− 2.1* | RTV T/C (%) Optimum [2]: 37.1% | RTV T/C (%) Optimum (at day) [2]: (19) day | Tumor growth RTV d 39 [2]: 9.86 +/− 7.98 | RTV T/C (%) Optimum [3]: 58.4% | RTV T/C (%) Optimum (at day) [3]: (29) day | Tumor growth RTV d 31 [3]: 15.3 +/− 5.9* | BWC (%) (d 10/d 28) ([4]; Table 11, MT-3 model, 8 mg/kg/inj. i.v., treatment d 10): 2% | BWC [%] (at day) ([4]; Table 12, MT-3 model, 8 mg/kg/inj. i.v., treatment d 7): (19) day | BWC [%] ([4]; Table 12, MT-3 model, 8 mg/kg/inj. i.v., treatment d 7, maximum body weight loss): −2% | BWC [%] (at day) [4, 6]: (7) day | Toxic deaths [4, 6]: 0 | BWC [%] ([4]; Table 13, ovcar-3 model, 8 mg/kg/inj. i.v., treatment d 5, maximum body weight loss): −4% | BWC [%] (at day) [4, 7]: (25) day | Toxic deaths [4, 7]: 0 | BWC [%] ([4]; Table 14, MT3-ADR model, 8 mg/kg/inj. i.v., treatment d 10, maximum body weight loss): −8% | BWC (%) (d 7/d 20) ([4]; Table 15, MT-3 model, 8 mg/kg/inj. i.v., treatment d 7): −6% | BWC (%): day of maximum body weight loss ([4]; mouse, in vivo, iv, 8 mg/kg): (d 24) | BWC [%] ([4]; mouse, in vivo, iv, 8 mg/kg): −8%

COc1cccc2c1C(=O)c1c(O)c3c(c(O)c1C2=O)C[C@@](O)(C(=O)CO)C[C@@H]3O[C@H]1C[C@H](N)[C@@H](O)[C@H](C)O1 [Epirubicin]
sensibility of the MT-3 subtype towards anthracycline therapy [5]: no sensibility towards anthracycline therapy

CC(=O)[C@]1(O)Cc2c(O)c3c(c(O)c2[C@@H](O[C@H]2C[C@H](N)[C@H](O)[C@H](C)O2)C1)C(=O)c1ccccc1C3=O [Idarubicin]
sensibility of the MT-3 subtype towards anthracycline therapy [5]: no sensibility towards anthracycline therapy
